From US11046658B2, “Aminopyrazine derivatives as PI3K-γ inhibitors” (Incyte Corporation, priority 2018, dated 2021)
Counter-ions that a name gives are not always drawn.

test system: Phosphorylated Ribosomal Protein S6 (RPS6) in THP-1 cells; experiment: THP-1 RPS6 ELISA Assay; assay type: cell-based, Human; settings: Homo sapiens; Table A1; THP-1 cells, 10 nM MCP-1; read-out: PI3Kγ_THP1_RPS6_ELISA IC50
Description: To measure the Phosphorylated Ribosomal Protein S6 (RPS6) in cell lysates, THP-1 cells (Human Acute Monocytic Leukemia) are purchased from ATCC (Manassas, Va.) and maintained in RPMI with 10% FBS (Gibco/Life Technologies, Carlsbad, Calif.). For the assay, THP-1 cells are serum starved overnight in RPMI, then plated in RPMI (2×10^5 cells/well in 90 μL) into 96-well flat-bottom tissue culture treated plates (Corning, Corning, N.Y.), in the presence or absence of a concentration range of test compounds. Covered plates are incubated for 2 hours at 37° C., 5% CO2 then treated with or without 10 nM MCP-1(MYBioSource, San Diego, Calif.) for 15 minutes at 37° C., 5% CO2. Plates are centrifuged at 1600 RPM and supernatants are removed. Cells are lysed in Lysis Buffer (Cell Signaling, Danvers, Mass.) with Protease Inhibitor (Calbiochem/EMD, Germany), PMSF (Sigma, St Louis Mo.), HALTS (Thermo Fisher, Rockford, Ill.) for 30 min on wet ice. Cell lysates are frozen at −80 OC before testing. The lysates are tested in the Human/Mouse/Rat Phospho-RPS6 ELISA (R&D Systems, Inc. Minn, Minn.). The plate is measured using a microplate reader (SpectraMax M5—Molecular Devices, LLC Sunnyvale, Calif.) set to 450 nm with a wavelength correction of 540. IC50 determination is performed by fitting the curve of inhibitor percent inhibition versus the log of the inhibitor concentration using the GraphPad Prism 5.0 software.

**Q.** With Cc1ccc(C(O)(C(N)=O)C(F)(F)F)cc1-c1cnc(N)c(C(=O)NC2CC3CCC2O3)n1 (single isomer, unassigned) [Example 29, 3-amino-6-(5-(3-amino-1,1,1-trifluoro-2-hydroxy-3-oxopropan-2-yl)-2-methylphenyl)-N-(7-oxabicyclo[2.2.1]heptan-2-yl)pyrazine-2-carboxamide] as the molecule, how does the IC50 read?
**A.** < 100 nM

**Q.** For Cc1ccc(C(O)(C(N)=O)C(F)(F)F)cc1-c1cnc(N)c(C(=O)NCC(O)C(F)(F)F)n1 (single isomer, unassigned) [Example 43A, 3-amino-6-(5-(3-amino-1,1,1-trifluoro-2-hydroxy-3-oxopropan-2-yl)-2-methylphenyl)-N-(3,3,3-trifluoro-2-hydroxypropyl)pyrazine-2-carboxamide], which IC50 is on record?
**A.** < 100 nM

**Q.** Which IC50 does the source give for Cc1ccc(C(O)(C(N)=O)C(F)(F)F)cc1-c1cnc(N)c(C(=O)NCC(C)(C)O)n1 (stereo not shown) [Example 1, 3-Amino-6-(5-(3-amino-1,1,1-trifluoro-2-hydroxy-3-oxopropan-2-yl)-2-methylphenyl)-N-(2-hydroxy-2-methylpropyl)pyrazine-2-carboxamide] here?
**A.** < 100 nM

**Q.** How did the IC50 turn out when Cc1ccc(C(O)(C(N)=O)C(F)(F)F)cc1-c1cnc(N)c(C(=O)NC2CCOCC2)n1 (stereo not shown) [Example 2, 3-amino-6-(5-(3-amino-1,1,1-trifluoro-2-hydroxy-3-oxopropan-2-yl)-2-methylphenyl)-N-(tetrahydro-2H-pyran-4-yl)pyrazine-2-carboxamide trifluoroacetate] was run?
**A.** < 100 nM

**Q.** For Cc1ccc(C(O)(C(N)=O)C(F)(F)F)cc1-c1cnc(N)c(C(=O)NCC2(C#N)CC2)n1 (stereo not shown) [Example 4, 3-amino-6-(5-(3-amino-1,1,1-trifluoro-2-hydroxy-3-oxopropan-2-yl)-2-methylphenyl)-N-((1-cyanocyclopropyl)methyl)pyrazine-2-carboxamide trifluoroacetate], which IC50 is on record?
**A.** < 100 nM

**Q.** For Cc1ccc(C(O)(C(N)=O)C(F)(F)F)cc1-c1cnc(N)c(C(=O)NC(C)C)n1 (stereo not shown) [Example 5, 3-Amino-6-(5-(3-amino-1,1,1-trifluoro-2-hydroxy-3-oxopropan-2-yl)-2-methylphenyl)-N-isopropylpyrazine-2-carboxamide trifluoroacetate], which IC50 is on record?
**A.** < 100 nM

**Q.** How did the IC50 turn out when Cc1ccc(C(O)(C(N)=O)C(F)(F)F)cc1-c1cnc(N)c(C(=O)NC2CCC(F)(F)CC2)n1 (stereo not shown) [Example 6, 3-amino-6-(5-(3-amino-1,1,1-trifluoro-2-hydroxy-3-oxopropan-2-yl)-2-methylphenyl)-N-(4,4-difluorocyclohexyl)pyrazine-2-carboxamide trifluoroacetate] was run?
**A.** < 100 nM

**Q.** For CCNC(=O)c1nc(-c2cc(C(O)(C(N)=O)C(F)(F)F)ccc2C)cnc1N (stereo not shown) [Example 7, 3-Amino-6-(5-(3-amino-1,1,1-trifluoro-2-hydroxy-3-oxopropan-2-yl)-2-methylphenyl)-N-ethylpyrazine-2-carboxamide trifluoroacetate], which IC50 is on record?
**A.** < 100 nM

**Q.** Cc1ccc(C(O)(C(N)=O)C(F)(F)F)cc1-c1cnc(N)c(C(=O)N[C@@H](C)CC#N)n1 (stereo partly drawn) [Example 8, 3-amino-6-(5-(3-amino-1,1,1-trifluoro-2-hydroxy-3-oxopropan-2-yl)-2-methylphenyl)-N-((S)-1-cyanopropan-2-yl)pyrazine-2-carboxamide trifluoroacetate] was tested. Which IC50 did it give?
**A.** < 100 nM

**Q.** With Cc1ccc(C(O)(C(N)=O)C(F)(F)F)cc1-c1cnc(N)c(C(=O)N[C@@H]2CCCOC2)n1 (stereo partly drawn) [Example 9, 3-amino-6-(5-(3-amino-1,1,1-trifluoro-2-hydroxy-3-oxopropan-2-yl)-2-methylphenyl)-N-((R)-tetrahydro-2H-pyran-3-yl)pyrazine-2-carboxamide trifluoroacetate] as the molecule, how does the IC50 read?
**A.** < 100 nM

**Q.** Which IC50 does the source give for Cc1ccc(C(O)(C(N)=O)C(F)(F)F)cc1-c1cnc(N)c(C(=O)N[C@H]2CCCOC2)n1 (stereo partly drawn) [Example 10, 3-amino-6-(5-(3-amino-1,1,1-trifluoro-2-hydroxy-3-oxopropan-2-yl)-2-methylphenyl)-N-((S)-tetrahydro-2H-pyran-3-yl)pyrazine-2-carboxamide trifluoroacetate] here?
**A.** < 100 nM

**Q.** For Cc1ccc(C(O)(C(N)=O)C(F)(F)F)cc1-c1cnc(N)c(C(=O)N[C@H]2CCOC2)n1 (stereo partly drawn) [Example 11, 3-amino-6-(5-(3-amino-1,1,1-trifluoro-2-hydroxy-3-oxopropan-2-yl)-2-methylphenyl)-N-((S)-tetrahydrofuran-3-yl)pyrazine-2-carboxamide trifluoroacetate], which IC50 is on record?
**A.** < 100 nM

**Q.** How did the IC50 turn out when Cc1ccc(C(O)(C(N)=O)C(F)(F)F)cc1-c1cnc(N)c(C(=O)N[C@@H](C)CO)n1 (stereo partly drawn) [Example 12, 3-amino-6-(5-(3-amino-1,1,1-trifluoro-2-hydroxy-3-oxopropan-2-yl)-2-methylphenyl)-N-((S)-1-hydroxypropan-2-yl)pyrazine-2-carboxamide] was run?
**A.** < 100 nM

**Q.** Which IC50 does the source give for Cc1ccc(C(O)(C(N)=O)C(F)(F)F)cc1-c1cnc(N)c(C(=O)NC(C)(C)CO)n1 (stereo not shown) [Example 13, 3-Amino-6-(5-(3-amino-1,1,1-trifluoro-2-hydroxy-3-oxopropan-2-yl)-2-methylphenyl)-N-(1-hydroxy-2-methylpropan-2-yl)pyrazine-2-carboxamide] here?
**A.** < 100 nM

**Q.** How did the IC50 turn out when Cc1ccc(C(O)(C(N)=O)C(F)(F)F)cc1-c1cnc(N)c(C(=O)NCCC#N)n1 (stereo not shown) [Example 14, 3-amino-6-(5-(3-amino-1,1,1-trifluoro-2-hydroxy-3-oxopropan-2-yl)-2-methylphenyl)-N-(2-cyanoethyl)pyrazine-2-carboxamide trifluoroacetate] was run?
**A.** < 100 nM

**Q.** Which IC50 does the source give for Cc1ccc(C(O)(C(N)=O)C(F)(F)F)cc1-c1cnc(N)c(C(=O)NCC(C)(C)C#N)n1 (stereo not shown) [Example 15, 3-amino-6-(5-(3-amino-1,1,1-trifluoro-2-hydroxy-3-oxopropan-2-yl)-2-methylphenyl)-N-(2-cyano-2-methylpropyl)pyrazine-2-carboxamide trifluoroacetate] here?
**A.** < 100 nM

**Q.** Which IC50 does the source give for Cc1ccc(C(O)(C(N)=O)C(F)(F)F)cc1-c1cnc(N)c(C(=O)NCC2(C#N)CCC2)n1 (stereo not shown) [Example 16, 3-amino-6-(5-(3-amino-1,1,1-trifluoro-2-hydroxy-3-oxopropan-2-yl)-2-methylphenyl)-N-((1-cyanocyclobutyl)methyl)pyrazine-2-carboxamide trifluoroacetate] here?
**A.** < 100 nM

**Q.** CC[C@@H](CC#N)NC(=O)c1nc(-c2cc(C(O)(C(N)=O)C(F)(F)F)ccc2C)cnc1N (stereo partly drawn) [Example 20, 3-amino-6-(5-(3-amino-1,1,1-trifluoro-2-hydroxy-3-oxopropan-2-yl)-2-methylphenyl)-N-((S)-1-cyanobutan-2-yl)pyrazine-2-carboxamide trifluoroacetate] was tested. Which IC50 did it give?
**A.** < 100 nM

**Q.** With COC(C)(C)CNC(=O)c1nc(-c2cc(C(O)(C(N)=O)C(F)(F)F)ccc2C)cnc1N (stereo not shown) [Example 21, 3-amino-6-(5-(3-amino-1,1,1-trifluoro-2-hydroxy-3-oxopropan-2-yl)-2-methylphenyl)-N-(2-methoxy-2-methylpropyl)pyrazine-2-carboxamide trifluoroacetate] as the molecule, how does the IC50 read?
**A.** < 100 nM

**Q.** Which IC50 does the source give for Cc1ccc(C(O)(C(N)=O)C(F)(F)F)cc1-c1cnc(N)c(C(=O)NC23CC(C#N)(C2)C3)n1 (stereo not shown) [Example 23, 3-amino-6-(5-(3-amino-1,1,1-trifluoro-2-hydroxy-3-oxopropan-2-yl)-2-methylphenyl)-N-(3-cyanobicyclo[1.1.1]pentan-1-yl)pyrazine-2-carboxamide trifluoroacetate] here?
**A.** < 100 nM

**Q.** For Cc1ccc(C(O)(C(N)=O)C(F)(F)F)cc1-c1cnc(N)c(C(=O)NC23CCC(C#N)(C2)C3)n1 (stereo not shown) [Example 24, 3-amino-6-(5-(3-amino-1,1,1-trifluoro-2-hydroxy-3-oxopropan-2-yl)-2-methylphenyl)-N-(4-cyanobicyclo[2.1.1]hexan-1-yl)pyrazine-2-carboxamide trifluoroacetate], which IC50 is on record?
**A.** < 100 nM

**Q.** For Cc1ccc(C(O)(C(N)=O)C(F)(F)F)cc1-c1cnc(N)c(C(=O)NC23CCC(C#N)(CC2)CC3)n1 (stereo not shown) [Example 25, 3-amino-6-(5-(3-amino-1,1,1-trifluoro-2-hydroxy-3-oxopropan-2-yl)-2-methylphenyl)-N-(4-cyanobicyclo[2.2.2]octan-1-yl)pyrazine-2-carboxamide trifluoroacetate], which IC50 is on record?
**A.** < 100 nM

**Q.** Which IC50 does the source give for COC[C@H]1CCN1C(=O)c1nc(-c2cc(C(O)(C(N)=O)C(F)(F)F)ccc2C)cnc1N (stereo partly drawn) [Example 26, 2-(3-(5-amino-6-((R)-2-(methoxymethyl)azetidine-1-carbonyl)pyrazin-2-yl)-4-methylphenyl)-3,3,3-trifluoro-2-hydroxypropanamide] here?
**A.** < 500 nM

same assay, conditions: Table A1; THP-1 cells, 10 nM MCP-1; read-out: PI3Kγ_THP1_RPS6_ELISA IC50

**Q.** With Cc1ccc(C(O)(C(N)=O)C(F)(F)F)cc1-c1cnc(N)c(C(=O)NC2CC3CCC2O3)n1 (single isomer, unassigned) [Example 30, 3-amino-6-(5-(3-amino-1,1,1-trifluoro-2-hydroxy-3-oxopropan-2-yl)-2-methylphenyl)-N-(7-oxabicyclo[2.2.1]heptan-2-yl)pyrazine-2-carboxamide] as the molecule, how does the IC50 read?
**A.** < 100 nM

**Q.** Cc1ccc(C(O)(C(N)=O)C(F)(F)F)cc1-c1cnc(N)c(C(=O)NCC(O)C(F)(F)F)n1 (single isomer, unassigned) [Example 43B, 3-amino-6-(5-(3-amino-1,1,1-trifluoro-2-hydroxy-3-oxopropan-2-yl)-2-methylphenyl)-N-(3,3,3-trifluoro-2-hydroxypropyl)pyrazine-2-carboxamide] was tested. Which IC50 did it give?
**A.** < 100 nM
